Experimental data reported in PMC3810134, “Substrate and Inhibitor Specificity of the Type II p21-Activated Kinase, PAK6” (PLoS ONE, 2013).
pIC50, pKi: −log10 of the molar value. Read-outs that look alike come from different tables or passages of the source. No end group written: not given here.

How the values were obtained:
[1] = test system: PAK kinases; details: ref [41], cited from earlier work
Source text: (§1) Therefore understanding how sunitinib binds to the type II PAKs may represent a starting point for future small molecule drug discovery. There are currently 6 co-crystal structures of protein kinases in complex with sunitinib deposited in the PDB. These kinases are of VEGFR (4AGD), KIT (3G0E), KIT-D816H mutation (3G0F), ITK (3MIY), CDK2 (3TI1) and phosphorylase kin ...

[2] = molecular target: type II PAKs; details: range over the family, ref [41], read-out: Ki (estimated range); cited from earlier work
Source text: as §1

[3] = molecular target: T1, PAK6 catalytic domain (residues 383–674) (Homo sapiens, UniProt Q9NQU5); assay: In vitro PAK6 kinase assay (trans-inhibition by peptides, MBP substrate, radioactive); format: biochemical
T1 construct: recombinant PAK6 catalytic domain (residues 383–674) purified as described above; 6xHis (N, cleaved yes); made in house; host or cells: E. coli BL21(DE3)
T1 sequence (Q9NQU5 383-674): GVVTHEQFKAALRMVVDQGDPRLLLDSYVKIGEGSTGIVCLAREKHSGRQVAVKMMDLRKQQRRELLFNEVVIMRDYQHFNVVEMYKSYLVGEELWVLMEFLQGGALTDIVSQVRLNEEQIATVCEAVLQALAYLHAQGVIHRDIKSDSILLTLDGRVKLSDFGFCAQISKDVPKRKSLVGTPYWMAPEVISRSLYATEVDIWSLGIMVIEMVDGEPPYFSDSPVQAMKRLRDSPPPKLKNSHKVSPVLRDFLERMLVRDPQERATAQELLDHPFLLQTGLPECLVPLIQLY
Method: Catalytic domain residues 383–674 of PAK6 (UniProt Q9NQU5) were amplified from cDNA (Open Biosystems) then subcloned into a modified pET-32 vector with an N-terminal 6xHis tag cleavable by TEV protease. A single colony of transformed E. coli BL21(DE3) was grown in Luria-Bertani (LB) medium at 37°C for 7 hours with kanamycin sulfate (100 µg/ml). Then the fresh culture was inoculated (1∶100) into in LB supplemented with kanamycin sulfate (100 µg/ml). Protein expression was induced at an A 600 of 0.4 by addition of 0.3 mM isopropyl-thio-galactopyranoside (IPTG) at 18°C for 14 hr. Cells were harvested and then resuspended in lysis buffer (50 mM HEPES pH 7.5, 500 mM NaCl, 0.5 mM TCEP, and 1 mM PMSF). Lysozyme and DNAse-I were added and the mixture was incubated on ice before three cycles of flash-freezing in a dry ice and ethanol mixture and thawing at 4°C. Following sonication and centrifugation, the supernatant was collected and loaded onto a nickel sepharose column equilibrated with 100 ml binding buffer (50 mM HEPES pH 7.5, 500 mM NaCl, 5 mM imidazole, 0.5 mM TCEP, 5% glycerol). Contaminating proteins were washed away with 200 ml wash buffer (50 mM HEPES pH 7.5, 500 mM NaCl, 30 mM imidazole, 0.5 mM TCEP, 5% glycerol). PAK6 catalytic domain was eluted with an imidazole step gradient and identified by SDS-PAGE. Overnight TEV cleavage was performed by adding TEV protease and dialyzing the mixture against size exclusion buffer (50 mM Tris pH 8, 250 mM NaCl, 5 mM TCEP). PAK6 catalytic domain was then reloaded onto the nickel sepharose column to remove remaining uncleaved protein. The sample then was loaded onto a Superdex 75 16/60 gel-filtration column equilibrated with size exclusion buffer.
Kinase activity was assessed using a radioactive assay with myelin basic protein (MBP) as substrate. […] Kinase assays were performed by adding 150 nM of PAK6, 2 µM of MBP as the substrate, 50 µM of cold-ATP and 0.1 µCi of hot [γ-^33P] ATP in Tris buffer (20 mM Tris-HCl pH 8.0, 0.15 M NaCl, 1 mM DTT and 10 mM MgCl2) for a total volume of 25 µl. […] Control peptide ([…]) was purchased from Anaspec and inhibition assays were performed using between 0.5 mM and 4.5 mM of peptide. The reaction was conducted at 30°C for 10 min and stopped by addition of 5X sample buffer and analyzed by SDS-PAGE. Gels were analyzed by exposure to phosphor storage screen (GE) followed by scanning using a Molecular Imager FX Pro Plus System (Bio-Rad) and quantification by optical densitometry Quantity One (Bio-Rad). Relative activities were compared to those measured for PAK6. Measurements were calculated from at least three independent experiments.

[4] = test system: mouse models of cancer; details: ref [22]; cited from earlier work
Source text: (§2) ATP-competitive small molecule inhibitors of the type II PAKs could be useful as cancer therapeutics. […] Sunitinib (SU11248) is a potent ATP-competitive multi-kinase inhibitor that is indicated for treatment of renal cell carcinoma, imatinib-resistant gastrointestinal stromal tumors, advanced pancreatic neuroendocrine tumors and other tumor types [ ...

[5] = test system: type II PAKs and also PAK1; details: each of the type II PAKs and also PAK1; ref [22]; cited from earlier work
Source text: as §2

[6] = test system: human clinical trials; details: ref [22]; cited from earlier work
Source text: as §2

[7] = 150 nM PAK6, 2 µM MBP, 50 µM cold-ATP, [γ-33P] ATP, 20 mM Tris-HCl pH 8.0, 0.15 M NaCl, 1 mM DTT, 10 mM MgCl2, 30°C, 10 min, SDS-PAGE/phosphor storage screen, 3 independent experiments, tested wild-type 0.06-5.85 mM, P52L 1.8-5.85 mM, control 0.5-4.5 mM, read-out: IC50 (inhibition of PAK6 kinase activity)
[8] = 95% confidence interval of the IC50, 3 independent experiments, read-out: 95% confidence (of IC50)

Which results are given for CCN(CC)CCNC(=O)c1c(C)[nH]c(/C=C2\C(=O)Nc3ccc(F)cc32)c1C [Sunitinib]?
inhibition of the PAK kinases overall [1]: weak inhibitor; selectivity ([1]; type II vs type I PAK family members): selectivity for type II over type I PAK family members; pKi [2]: 5.15 to 6.30

With RRPKPVVDP [N-terminal peptide] as the compound, how does the pIC50 [3, 7] read?
Its pIC50 is 3.22.

And the pIC50 [3, 8]?
Its pIC50 is 3.15 to 3.29.

Which “efficacy in mouse models of cancer” value [4] does the source give for Cc1nc(Nc2[nH]nc3c2CN(C(=O)N[C@H](CN(C)C)c2ccccc2)C3(C)C)c2sccc2n1 [PF-3758309] here?
Its value is “effective in mouse models of cancer”.

And the in vitro activity [5]?
Its in vitro activity is “displays in vitro activity against each of the type II PAKs and also PAK1”.

What about the “outcome in human clinical trials” value [6] of the same compound?
Its value is “failed in human clinical trials”.

With APRTPGGRR [control peptide] as the compound, how does the pIC50 [3] read?
Its pIC50 is 1.82 to 2.52.

With RRPKLVVDP [P52L mutant peptide] as the compound, how does the pIC50 [3, 7] read?
The pIC50 was 2.38.

And the pIC50 [3, 8]?
Its pIC50 is 2.34 to 2.42.
